This series is described as follows: Period 1 absolute bioavailability study: plasma PK after IV microdose of [14C]-mobocertinib. Format: in vivo, human. As to the method: This was a two-period, open-label, single-dose phase 1 study (NCT03811834) conducted at one clinical site (Celerion, Lincoln, Nebraska, USA) in healthy male participants. The primary objective of Period 1 was to determine the absolute bioavailability of mobocertinib following a single oral dose of 160 mg mobocertinib as capsules and a single intravenous (IV) microdose of 50 µg (~ 2 µCi) [^14C]-mobocertinib. The primary objectives of Period 2 were to (1) assess the cumulative excretion of total radioactivity in urine and feces (mass balance); (2) assess the metabolite profile of mobocertinib in plasma, urine, and feces; and (3) characterize the PK of mobocertinib, AP32960, and AP32914 in plasma, whole blood, and urine, and total radioactivity concentration equivalents in plasma and whole blood following a single oral dose of 160 mg (~ 100 µCi) [^14C]-mobocertinib as an oral solution. A sample size of 6 healthy males was selected without statistical considerations and deemed adequate to meet the study objectives. Furthermore, the sample size was limited based on clinical considerations for human ADME studies and to limit exposure to radioactivity.
On Day 1 of Period 1, following an overnight fast of at least 10 h, participants received a single 160 mg dose of non-radiolabeled mobocertinib as capsules. At 3.75 h post oral dosing (i.e., 15 min before the median oral tmax of ~ 4 h), participants received a nominal dose of 50 µg (~ 2 µCi) [^14C]-mobocertinib as a 15-minute IV infusion. However, due to nonspecific binding of [^14C]-mobocertinib to the dosing syringe and tubing, actual doses administered ranged from 36.8 to 38.7 µg (1.47 to 1.55 µCi). Participants were required to stay in the clinic from Day − 1 through at least the 96-hour blood draw (Day 5) or until a discharge criterion was met (i.e., ≥ 80% of the total administered radioactive dose was recovered in urine and fecal samples or excretion of radioactivity in urine and feces combined had declined to ≤ 1% of the total administered dose per day for ≥ 2 consecutive intervals), up to a maximum of 7 days postdose (Day 8). Blood samples for the measurement of plasma mobocertinib, AP32960, and AP32914 concentrations were collected predose and at 0.5, 1, 2, 3, 4, 5, 6, 8, 12, 24, 36, 48, 72, and 96 h after oral administration. Additional blood samples to determine [^14C]-total radioactivity, [^14C]-mobocertinib, [^14C]-AP32960, and [^14C]-AP32914 in plasma were collected at 3.75 h after oral dosing (i.e., predose for [^14C] assessments), at the end of the IV infusion, and at 10, 20, and 30 min, and 1, 2, 4, 8, 20, 32, 44, 68, and 92 h after the end of infusion. […] Urine and feces were collected before oral dosing (− 48–0 h); urine was collected over 0–3.75 h, 3.75–12 h and 12–24 h after oral dosing; feces were collected from 0 to 3.75 h and 3.75–24 h after oral dosing; both urine and feces were then collected over 24-hour intervals until a discharge criterion was met, or up to Day 8 (168 h postdose).
Plasma, whole blood, and urine samples were assayed for mobocertinib, AP32960, and AP32914 concentrations using liquid chromatography-tandem mass spectrometry (Q2 Solutions, Ithaca, New York, USA). The analytical range for each analyte was 0.250 to 500 ng/mL in whole blood and plasma, and 1.00 to 1000 ng/mL in urine. […] Urine and fecal samples were assayed for total radioactivity following the IV dose of [^14C]-mobocertinib in Period 1, and whole blood, plasma, urine, and fecal samples were assayed for total radioactivity following the oral dose of [^14C]-mobocertinib in Period 2 using liquid scintillation counting (LSC; Celerion, Lincoln, Nebraska, USA; LLOQs: Period 1 urine: 0.115–0.118 ng eq/g, feces: 0.720–0.759 ng eq/g; Period 2 whole blood: 87.3–112 ng eq/g, plasma: 116–132 ng eq/mL, urine: 37.8–46.8 ng eq/g, feces: 110–336 ng eq/g across participants). […]

Where [1] appears, read: Period 1, IV infusion 50 µg [14C]-mobocertinib, geometric mean (geometric CV%).
The mark [2] stands for this setting: Period 1, IV infusion 50 µg [14C]-mobocertinib, normalized to a 160 mg dose, geometric mean (geometric CV%).

As for [^14C]-mobocertinib, the tmax (Period 1, 15-min IV infusion 50 µg (~2 µCi) [14C]-mobocertinib, median (range)) is given as 0.26 (0.26–1.25) h. Under setting [1], the “CL/F (after IV administration, values represent CL)” value was 55.9 (30.0) L/h; the “Vz/F (after IV administration, values represent Vz)” value is 1791 (45.3) L; the t1/2z was 22.2 (41.3) h. Moreover, under setting [2], the “AUC∞” value is recorded as 2864 (30.0) ng*h/mL and the Cmax is 624.9 (43.6) ng/mL.

Source of the values: article PMC11327196, “A phase 1 study to assess the absolute bioavailability, mass balance, pharmacokinetics, metabolism, and excretion of [^14C]-mobocertinib, an oral inhibitor of EGFR exon 20 insertion mutations, in healthy participants” (Investigational New Drugs, 2024).
